Measured values: patent US20210379068A1, “METHODS AND MATERIALS FOR TREATING NEUROPSYCHIATRIC DISORDERS” (Mayo Foundation for Medical Education and Research, priority 2018, published 2021)

Experiments:
[1] = system: senescent cells in perigonadal adipose tissue; assay: Senescence markers in perigonadal adipose tissue, INK-ATTAC mice on HFD; format: in vivo, mouse; details: AP20187 vs vehicle
Description: (§1) INK-ATTAC mice were injected intraperitoneally (i.p.) with AP20187 (10 mg/kg) or vehicle for 3 days every 2 weeks for a total of 8-10 weeks.
Total RNA was extracted from white adipose tissue and brain using Trizol (Life Technologies, Carlsbad, Calif.) and reverse transcribed to cDNA with a M-MLV Reverse Transcriptase kit (Life Technologies). Real-time PCR was performed in a 7500 Fast Real Time PCR System (Applied Biosystems, Foster City, Calif.) using TaqMan Fast Universal PCR Master Mix (Life Technologies) and predesigned primers and probes from Applied Biosystems (Assay ID: Mm00494449_m1 [CDKN2A]; Mm04205640_g1 [CDKN1A]; Mm00446191_m1 [IL6]). Target gene expression was expressed as 2-ΔΔCT by the comparative CT method and normalized to the expression of TATA-binding protein (TBP) (Assay ID: Mm01277042 ml [TBP]).
On the day of the sacrifice, a small piece of adipose tissue was fixed with 2% PFA and 0.5% glutaraldehyde (Sigma) for 15 minutes at room temperature before being incubated overnight in SA-β-Gal solution (150 mM NaCl (Sigma), 2 mM MgCl2 (Sigma), 40 mM Citric Acid (Sigma), 12 mM NaPO3 (Sigma), 400 μg/ml X-gal (Thermofisher), 2.1 mg/ml potassium hexacyanoferrat(II)trihydrate, and 1.65 mg/ml Potassium hexacyanoferrat(III)trihydrate (Sigma), pH 6.0) at 37° C. overnight. Fat chunks were washed with PBS three times and stored in PBS at 4° C. protected from light. Within 3 days, adipose tissue was stained with Hoechst solution (1:5000; Thermofisher), lightly squashed between two 1×3 inch glass slides, and imaged using a light microscope. 10-20 random visual fields were captured at 20× magnification at light exposure identical for all the samples. Images were quantified by manual counting of SA-β-Gal positive cells by a blinded assessor and the data were expressed as percent of total DAPI-positive cells.
Paraffin sections were deparaffinized with Histoclear and hydrated in an ethanol gradient followed by water and PBS. Antigen was retrieved by incubation in 0.01M citrate buffer (pH 6.0) at 95° C. for 10 minutes. Slides were placed in blocking buffer (1:60 normal goat serum [S-1000, Vector Laboratories] in 0.1% BSA/PBS) for 60 minutes at room temperature. […] Primary antibodies used (Table 2) were diluted in blocking buffer and applied overnight at 4° C. The next day, slides were washed 3 times with PBS and incubated for 30 minutes with secondary goat, anti-rabbit antibody (1:200; Vector Laboratories #BA-1000) for TAF staining or for 60 minutes with secondary Alexa antibody (Table 1). For TAF staining, Fluorescein-Avidin in PBS (1:500; #A-2011, Vector Lab) was applied to each sample for 20 minutes. Slides were washed 3 times in PBS, which was followed by FISH for TAF detection. Briefly, tissues were crosslinked with 4% paraformaldehyde for 20 minutes and dehydrated in graded ethanol. Sections were denatured for 10 minutes at 80° C. in hybridization buffer (70% formamide (Sigma), 25 mM MgCl2, 0.1 M Tris (pH 7.2), and 5% blocking reagent [Roche]) containing 2.5 μg ml^−1 Cy-3-labelled telomere-specific (CCCTAA) peptide nucleic acid probe (Panagene), followed by hybridization for 2 hour at room temperature in the dark. Slides were washed twice with 70% formamide in 2×SSC for 15 minutes, followed by washes in 2×SSC and PBS for 10 minutes. Sections were mounted in Vectashield, DAPI-containing mounting media and imaged.
(§2) A single, 3 μm-thick section per mouse was used for TAF staining, while for Dcx and Plin2 staining was performed on three 10 μm-thick sections 80 μm-apart. To quantify periventricular lipid accumulation 10-30 images in the periventricular region were taken using the DM5500 widefield fluorescence microscope from Leica with a 10× (for frequency of periventricular glia) or ×40 (for ALISE phenotype of ependymal cells) objective lens. Number of Plin2-positive cells (for frequency of ALISE-positive periventricular glia) or area of Plin2-positive vesicles (for ALISE phenotype of ependymal cells) was assessed using ImageJ software. […]

[2] = system: Plin2+ periventricular glia; assay: Periventricular Plin2+ and TAF-positive cells (lateral ventricle), HFD INK-ATTAC mice; format: in vivo, mouse; details: AP20187 vs vehicle
Description: as §1
Paraffin sections were deparaffinized with Histoclear and hydrated in an ethanol gradient followed by water and PBS. Antigen was retrieved by incubation in 0.01M citrate buffer (pH 6.0) at 95° C. for 10 minutes. Slides were placed in blocking buffer (1:60 normal goat serum [S-1000, Vector Laboratories] in 0.1% BSA/PBS) for 60 minutes at room temperature. […] Primary antibodies used (Table 2) were diluted in blocking buffer and applied overnight at 4° C. The next day, slides were washed 3 times with PBS and incubated for 30 minutes with secondary goat, anti-rabbit antibody (1:200; Vector Laboratories #BA-1000) for TAF staining or for 60 minutes with secondary Alexa antibody (Table 1). For TAF staining, Fluorescein-Avidin in PBS (1:500; #A-2011, Vector Lab) was applied to each sample for 20 minutes. Slides were washed 3 times in PBS, which was followed by FISH for TAF detection. […]
as §2, with “software. For identity assessment of Plin2+ cells, 10 μm-thick sections were stained with combination of antibodies for Iba1 (secondary antibody conjugated with Alexa Fluor 488), Plin2 (secondary antibody conjugated with Alexa Fluor 594), and Vimentin (secondary antibody conjugated with Alexa Fluor 647) and quantified for frequency of Plin2+ astrocytes (Iba1−, Vim+) and microglia (Iba1+) in the periventricular region.” for “software.”

CC[C@H](C(=O)N1CCCC[C@H]1C(=O)O[C@H](CCc1ccc(OC)c(OC)c1)c1cccc(OCC(=O)NCC(CNC(=O)COc2cccc([C@@H](CCc3ccc(OC)c(OC)c3)OC(=O)[C@@H]3CCCCN3C(=O)[C@@H](CC)c3cc(OC)c(OC)c(OC)c3)c2)CN(C)C)c1)c1cc(OC)c(OC)c(OC)c1 [AP]
% SA-β-Gal positive cells, perigonadal adipose tissue [1]: significantly reduced | p16Ink4a (RT-PCR), perigonadal adipose tissue [1]: significantly reduced | p21 (PCR), perigonadal adipose tissue [1]: not significantly changed | telomere-associated DNA damage foci (TAF), perigonadal adipose tissue [1]: significantly reduced | γ-H2A.X DNA damage foci, perigonadal adipose tissue [1]: not significantly changed | % SA-β-Gal positive cells, perigonadal adipose tissue ([1]; listed as AP20187): complete rescue | p21 (PCR), perigonadal adipose tissue ([1]; listed as AP20187): no change | γ-H2A.X DNA damage foci, perigonadal adipose tissue ([1]; listed as AP20187): no change | Plin2+ cells (cells containing lipid droplets) in the periventricular area [2]: significant reduction | cells bearing senescent markers (NeuN negative, TAF-positive cells) in the periventricular region [2]: significant reduction | Plin2+ cells (cells containing lipid droplets) in the periventricular area ([2]; listed as AP20187): reduced lipid droplets
